Tested on: NCI-H226 xenograft
Assay: Inhibition of mouse xenograft NCI-H226 tumors
Format: in vivo, BALB/c nude mice
Settings: Day 27, p.o., QD
From the text: This study evaluated the in vivo therapeutic efficacy of TEAD inhibitors in the treatment of the subcutaneous lung cancer NCI-H226 xenograft model in female BALB/c nude mice.
• ANOVA Analysis of variance • BW Body weight • BWL Body weight loss • FFPE Formalin fixed paraffin embedded • IACUC Institutional animal care and use committee • MTV Mean tumor volume • N/A Not available or not applicable • p.o. Oral (ly) • QD Once a day • REG REG=[(T0−Ti)/T0]×100%; • Ti as the mean tumor volume of the treatment group on the measurement day; • T0 as the mean tumor volume of the treatment group on Day 0. • ROA Route of administration • RT Room temperature • RTV Relative tumor volume • SD Standard deviation • SEM Standard error of mean • SOC Standard of care used in clinical setting for a specific disease • TBD To be determined • T/C The Ti/Ci value (%): T/C %=Ti/Ci×100; • Ti and Ci are the mean tumor volumes of the treatment and control groups, respectively, on a given day. • TGI Tumor growth inhibition; TGI %=(1−Ti/Ci)×100; • Ti and Ci are the mean tumor volumes of the treatment and control groups, respectively, on a given day. • TV Tumor volume • PK/PD Pharmacokinetics/Pharmacodynamics • ΔInhibition Mean % ΔInhibition=((Ci−C0)−(Ti−T0))/(Ci−C0)*100% • Ti and Ci are the mean tumor volumes of the treatment and control groups, respectively, on a given day. T0 and C0 as the mean tumor volumes of the treatment and vehicle groups on Day 0.
• Species Mus musculus • Strain Balb/c nude • Supplier GemPharmatech Co., Ltd • Gender Female • No. of Animals Ordered 68 (45 plus 23 spare) • No. of Animals Assigned 45 • to Study • Average Age of Animals 6-8 weeks • at Study Initiation
The NCI-H226 cells (CL-00364) cancer cells were maintained in vitro with RPMI1640 medium supplemented with 10% fetal bovine serum at 37° C. in an atmosphere of 5% CO2 in the air. The cells in exponential growth phase were harvested and quantitated by cell counter before tumor inoculation.
Each mouse was inoculated subcutaneously in the right front flank region with NCI-H226 tumor cells (1×10^7) in 0.2 ml of PBS mixed with Matrigel (1:1) for tumor development.
The randomization was performed when the mean tumor size reached 138.81 mm^3. 45 mice were enrolled in the study. All animals were randomly allocated to 9 study groups, 5 mice in each group. Randomization was performed based on “Matched distribution” method/“Stratified” method (StudyDirector™ software, version 3.1.399.19)/randomized block design. The date of randomization was denoted as day 0.
The treatment was initiated on the same day of randomization (day 0) per study design.
After tumor cells inoculation, the animals were checked daily for morbidity and mortality. During routine monitoring, the animals were checked for any effects of tumor growth and treatments on behavior such as mobility, food and water consumption, body weight gain/loss (Body weights were measured twice per week after randomization), eye/hair matting and any other abnormalities. Mortality and observed clinical signs were recorded for individual animals in detail.
Tumor volumes were measured twice per week after randomization in two dimensions using a caliper, and the volume was expressed in mm^3 using the formula: “V=(L×W×W)/2, where V is tumor volume, L is tumor length (the longest tumor dimension) and W is tumor width (the longest tumor dimension perpendicular to L). Dosing as well as tumor and body weight measurements were conducted in a Laminar Flow Cabinet.
To compare tumor volumes of different groups at a pre-specified day, Bartlett's test was first used to check the assumption of homogeneity of variance across all groups. When the p-value of Bartlett's test was >=0.05, one-way ANOVA was performed to test overall equality of means across all groups. […]

Row | SMILES | T/C (3 mg/kg) [%] | TGI (3 mg/kg) [%] | Tumor Volume (mean ± SEM) (3 mg/kg) [mm^3] | T/C (10 mg/kg) [%] | TGI (10 mg/kg) [%] | Tumor Volume (mean ± SEM) (10 mg/kg) [mm^3] | T/C (25 mg/kg) [%] | TGI (25 mg/kg) [%] | Tumor Volume (mean ± SEM) (25 mg/kg) [mm^3]
1 | O=C(NCc1ncco1)c1cnc2c(C3=CCC(C(F)(F)F)CC3)cccc2c1 (stereo not drawn) [Compound 11, N-(oxazol-2-ylmethyl)-8-(4-(trifluoromethyl)cyclohex-1-en-1-yl)quinoline-3-carboxamide] | 89.83 | 10.17 | 479.84 ± 96.60 | 36.49 | 63.51 | 194.94 ± 42.44 | 21.10 | 78.90 | 112.73 ± 17.20
2 | C[C@H](NC(=O)c1cnc2c(C3=CCC(C(F)(F)F)CC3)cccc2c1)c1ccccn1 (stereo partly drawn) [Compound 2, N—((S)-1-(pyridin-2-yl)ethyl)-8-(4-(trifluoromethyl)cyclohex-1-en-1-yl)quinoline-3-carboxamide] | 64.62 | 35.38 | 345.21 ± 85.33 | 45.64 | 54.36 | 243.78 ± 74.70 | 19.66 | 80.34 | 105.03 ± 13.17
